Consider 1 compound from patent US12233063B2, “Compositions and methods for treating eye disorders” (THE REGENTS OF THE UNIVERSITY OF MICHIGAN, priority 2017, dated 2025).

The subject of data set [1] is caspase 8. The experiment in a line: Caspase 8 activity in experimental retinal detachment. In kind it is in vivo, Brown-Norway rats. The note with it: 3 days after retinal detachment, subretinal injection. As for the experimental part: Experimental Model of Retinal Detachment. Detachments were created in Brown-Norway, adult rats as previously described (Wubben et al., supra; Besirli et al., 2010 supra; Zacks, D. N. et al. Invest. Ophthalmol. Vis. Sci. 44, 1262-1267 (2003); Zacks, D. N., et al. Invest. Ophthalmol. Vis. Sci. 45, 4563-4569 (2004); Besirli, C. G., et al. Invest. Ophthalmol. Vis. Sci. 52, 4193-4199 (2011)). Briefly, rodents were anesthetized with a mix of ketamine (100 mg/mL) and xylazine (20 mg/mL), and pupils were dilated with topical phenylephrine (2.5%) and tropicamide (1%). A 25-gauge microvitreoretinal blade (Walcott Rx Products, Ocean View, N.J.) was used to create a sclerotomy located 1-2 mm posterior to the limbus with care taken to avoid lens damage. […]
1 tablet of protease inhibitor (Complete Mini; Roche Diagnostics, Indianapolis, IN) and 1 tablet of phosphatase inhibitor (PhosSTOP; Roche Diagnostics, Indianapolis, IN) per 10 mL were added to the lysis buffer. The homogenates were centrifuged at 10,000 g for 10 minutes at 4° C., and total protein concentration of the supernatant was determined using a Micro BCA protein assay kit (ThermoScientific, Rockford, IL). Substrate was incubated with 50 μg of protein in a white-walled 96 well-plate at room temperature for 1 hour and luminescence was measured as above. […]

In a further data set the test system is caspase 3/7. The experiment in a line: Caspase 3/7 activity assay in 661W cells. In kind it is cell-based. The note with it: 8 hours. The procedure: (§1) Caspase Activity Assay. Luminescent assay kits (Caspase-Glo 8 and 3/7 Assay Systems, Promega, Madison, WI, Cat Nos. G8200 and G8090, respectively) were utilized to measure caspase 8 and caspase 3/7 activity according to the manufacturer's instructions. The 661W cells were seeded in white-walled 96-well plates at 2,500 cells/well for 24 hours prior to treatment. […] Caspase activity was measured at 8 hours status post treatment by incubating the cells with substrate for 1 hour according to the manufacturer's instructions. Luminescence was measured in a plate reader luminometer (BMG Labtech, Inc, Cary, NC).

The next data set relates to H1299 cell xenografts. The conditions noted are these: cited from earlier work.
For data set [2], the system named is caspase 8. Description: Caspase 8 activity assay in 661W cells. The data set is classed as cell-based. The note with it: 8 hours. As for the experimental part: as §1
The target of a further data set is T1, pyruvate kinase (PK) (Rattus norvegicus, UniProt P11980).
T1 construct: from tissue; host or cells: retina of Brown-Norway adult rats
The experiment in a line: In vivo pyruvate kinase activation in rat retina after intravitreal injection. The conditions noted are these: rats. The procedure: Animals. Intravitreal injections of ML-265 or vehicle (DMSO) were performed in Brown-Norway, adult rats. Rodents were anesthetized with a mix of ketamine (100 mg/mL) and xylazine (20 mg/mL), and pupils were dilated with topical phenylephrine (2.5%) and tropicamide (1%). A 25-gauge microvitreoretinal blade (Walcott Rx Products, Ocean View, N.J.) was used to create a sclerotomy located 1-2 mm posterior to the limbus with care taken to avoid lens damage. A blunt, 34-gauge cannula was introduced through the sclerotomy into the vitreous cavity. […] Four hours after intravitreal injection, retinas from experimental rat eyes were dissected from the RPE-choroid, homogenized, and lysed in RIPA Lysis and Extraction Buffer with protease inhibitors. The assay was carried out using 4 microliters of rat retinal lysate in an enzyme buffer mixture (50 mM Tris-HCl, pH 7.4, 100 mM KCl, 5 mM MgCl2, 1 mM ADP, 0.5 mM PEP, and 0.2 mM NADH) and 8 units of LDH similar to what has been previously described (Wubben et al., supra; Raj ala et al., supra). Pyruvate kinase activity was normalized to total protein in each retinal lysate.
The retinas of these animals were then harvested 15 days after injection and assayed for PK activity (FIG. 20).

The target of data set [3] is T2, pyruvate kinase (PK) in 661W cells (Mus musculus, UniProt P52480).
T2 construct: endogenous in cells; host or cells: 661W photoreceptor cell line
Description: Pyruvate kinase activity in lysates of 661W cells treated for 2 hours. In kind it is cell-based. The conditions noted are these: for AC50: 2 hours incubation. The procedure:
Cell Culture. The 661W photoreceptor cell line was generously provided by Dr. Muayyad al-Ubaidi (Department of Cell Biology, University of Oklahoma Health Sciences Center, Oklahoma City, OK, USA) (al-Ubaidi, M. R. et al. J. Cell Biol. 119, 1681-1687 (1992)). The 661W cell line was maintained in Dulbecco's modified Eagle's medium containing 10% fetal bovine serum, 300 mg/L glutamine, 32 mg/L putrescine, 40 μL/L of β-mercaptoethanol, and 40 μg/L of both hydrocortisone 21-hemisuccinate and progesterone. The media also contained penicillin (90 units/mL) and streptomycin (0.09 mg/mL). Cells were grown at 37° C. in a humidified atmosphere of 5% CO2 and 95% air.
Cell culture. For cell line experiments, media was replaced prior to the start of treatment with DMSO or ML-265. […] Cells were lysed and homogenized in RIPA Lysis and Extraction Buffer (Catalog number: 89900, Life Technologies Corporation, Grand Island, NY) with protease inhibitors (Complete-Mini, Roche Diagnostics, Indianapolis, IN) and clarified by centrifugation at 10,000 rpm for 10 minutes. Five microliters of the supernatant was used to assess pyruvate kinase activity, and the activity was normalized to total protein content as previously described (Walsh et al., supra).

The nature of data set [4]: Ocular pharmacokinetics after single intravitreal injection, aqueous humor. In kind it is in vivo, Dutch-belted rabbits. The note with it: male, Dutch-belted, other: intravitreal, rabbit aqueous humor. As for the experimental part: Pharmacokinetics. Pharmacokinetic studies were performed in Dutch-belted rabbits. As previously described, male rabbits were anesthetized with inhalant anesthesia (sevoflurane) prior to each aqueous humor collection or intravitreal injection. An external heat source was used to prevent hypothermia. […] A Flynn pediatric lid speculum was placed in the eye and betadine was applied to the injection site. The temporal sclera was marked with a caliper 2 mm from the limbus. […] Delivery of the compound into the eye was confirmed via clinical inspection (Smith, A. et al. J Ocul Pharmacol Ther 34, 477-485 (2018)). An aqueous humor sample (100 microliters) was collected from each eye prior to intravitreal injection to serve as a baseline control. A 30-gauge needle on a 1 ml syringe was used to enter the anterior chamber of the eye and aspirate the aqueous humor in a controlled fashion. […] Samples were analyzed by LC-MS/MS (liquid chromatography-mass spectrometry/mass spectrometry). […] Rabbits are the most commonly used animals in intravitreal pharmacokinetic studies with good correlation to the human eye (Del Amo, E. M. & Urtti, A. Exp. Eye Res. 137, 111-124 (2015)). As described above, two different concentrations were injected into the vitreous of rabbits, and the aqueous humor was sampled at various times thereafter. […]

Another data set has as its target T3, human recombinant PKM2 (Homo sapiens, UniProt P14618).
T3 construct: purchased Sigma SAE0021
Description: Pyruvate kinase activity enzyme assay, recombinant enzyme (LDH-coupled). In kind it is biochemical. The conditions noted are these: read-out: max activation. As for the experimental part:
Pyruvate Kinase Activity Enzyme Assay. Recombinant Enzyme. A continuous, enzyme-coupled assay, which uses lactate dehydrogenase (LDH) and measures the depletion of NADH via absorbance at 340 nm was utilized to determine the pyruvate kinase activity. […] The decrease in absorbance at 340 nm was monitored using a Spectrostar Omega plate reader (BMG LABTECH Inc., Cary, NC, USA). Initial velocities were calculated with the MARS software. Data were normalized to DMSO (dimethyl sulfoxide)-treated PKM2 activity.

For data set [5], the system named is genes involved in glucose metabolism. The experiment in a line: Quantitative PCR of glucose metabolism genes in treated rat retinas. The conditions noted are these: 2 μL of 7.5 mM intravitreal, 3 days, fold change cut-off of 2, vs untreated and DMSO. The data set is classed as in vivo. The procedure: Quantitative Real-Time PCR. Intravitreal injections of ML-265 or vehicle (DMSO) were performed in Brown-Norway, adult rats as described above. […] Left eyes were injected with ML-265 or DMSO. The right eye served as the control, with all steps of the procedure performed, except for introduction of the blunt cannula and injection of ML-265 or DMSO. Retinas were harvested 3 days post-injection.
Total RNA was purified from retinal tissues of rats using RNeasy Mini kit (Qiagen, Cat No./ID: 74104) and QIAshredder (Qiagen, Cat No./ID: 79654). cDNA was synthesized using RT^2 First Strand Kit (Cat. No./ID: 330401) according to the manufacturer's instructions. Quantitative PCR was performed in at least triplicate for the different experimental groups using the Rat Glucose Metabolism RT^2 Profiler™ PCR Array (Qiagen, Cat No./ID: PARN-006Z). This PCR array allows simultaneous profiling of 84 genes involved in glucose metabolism and includes housekeeping genes for normalization. Reactions were performed and monitored using a CFX96 real time PCR system (Bio-Rad Laboratories), 1 cycle at 95° C. for 10 min followed by 40 cycles at 95° C. for 15 sec, 60° C. for 1 min. Data analysis was performed using the RT^2 Profiler™ PCR Array Data Analysis Template from Qiagen. Those genes whose relative expression level was low or not detected in all experimental groups were excluded from analysis. […]

A further data set deals with 661W cells. The experiment in a line: Cell viability of 661W cells (RealTime-Glo MT). The data set is classed as cell-based. The conditions noted are these: 48 hours; for cell viability above DMSO-treated cells in standard tissue culture conditions / less cell death as compared to vehicle: FasL. The procedure: Cell viability. Cell viability was measured using a luminescent assay kit not based on ATP (RealTime-Glo MT Cell Viability Assay, Promega, Madison, WI, Cat No. G9711). 661W cells were seeded in 96-well plates (Nunc, Rochester, NY) at 2,500 cells/well 24 hours prior to treatment. […] Cell viability was measured 48 hours after treatment according to the manufacturer's instructions. […] Viability was again assessed at 48 hours after addition of FasL and HA Luminescence was measured in a plate reader luminometer (BMG Labtech, Inc, Cary, NC).

Where [6] appears, read: 500 ng/mL FasL and 250 ng/mL HA.
Where [7] appears, read: standard tissue culture conditions.
[8] abbreviates: 15 days after single intravitreal injection of 2 μL of 7.5 mM.

Like-named read-outs stand apart in the source and are kept apart here.

T1 sequence (P11980 1-531 isoform P11980-2): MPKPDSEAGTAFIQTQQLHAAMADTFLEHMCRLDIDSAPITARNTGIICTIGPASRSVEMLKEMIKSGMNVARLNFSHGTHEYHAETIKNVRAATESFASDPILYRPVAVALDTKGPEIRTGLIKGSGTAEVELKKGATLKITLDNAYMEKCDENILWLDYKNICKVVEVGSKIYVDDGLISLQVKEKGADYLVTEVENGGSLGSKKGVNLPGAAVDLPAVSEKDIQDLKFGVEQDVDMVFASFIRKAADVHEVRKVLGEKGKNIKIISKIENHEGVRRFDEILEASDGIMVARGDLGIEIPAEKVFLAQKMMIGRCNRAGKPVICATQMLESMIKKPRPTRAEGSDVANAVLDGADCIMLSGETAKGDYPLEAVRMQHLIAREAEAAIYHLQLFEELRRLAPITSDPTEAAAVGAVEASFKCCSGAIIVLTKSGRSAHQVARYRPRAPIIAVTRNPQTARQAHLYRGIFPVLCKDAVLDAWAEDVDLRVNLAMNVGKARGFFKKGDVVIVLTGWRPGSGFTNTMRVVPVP
T2 sequence (P52480 whole entry): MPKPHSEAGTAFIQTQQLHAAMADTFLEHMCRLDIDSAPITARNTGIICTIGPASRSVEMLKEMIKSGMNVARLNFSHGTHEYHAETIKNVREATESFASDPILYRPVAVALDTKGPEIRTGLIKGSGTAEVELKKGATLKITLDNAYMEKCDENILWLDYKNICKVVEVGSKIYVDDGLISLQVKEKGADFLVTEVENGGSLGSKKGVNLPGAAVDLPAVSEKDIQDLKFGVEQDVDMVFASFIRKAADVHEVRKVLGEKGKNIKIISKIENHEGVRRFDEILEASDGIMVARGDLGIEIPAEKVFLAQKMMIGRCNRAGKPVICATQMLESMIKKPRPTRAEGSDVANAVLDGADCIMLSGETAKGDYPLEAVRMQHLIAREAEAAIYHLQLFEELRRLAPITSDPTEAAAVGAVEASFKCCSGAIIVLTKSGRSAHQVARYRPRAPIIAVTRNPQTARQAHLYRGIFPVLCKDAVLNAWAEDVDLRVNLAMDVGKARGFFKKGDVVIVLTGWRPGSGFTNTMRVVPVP
T3 sequence (P14618 whole entry): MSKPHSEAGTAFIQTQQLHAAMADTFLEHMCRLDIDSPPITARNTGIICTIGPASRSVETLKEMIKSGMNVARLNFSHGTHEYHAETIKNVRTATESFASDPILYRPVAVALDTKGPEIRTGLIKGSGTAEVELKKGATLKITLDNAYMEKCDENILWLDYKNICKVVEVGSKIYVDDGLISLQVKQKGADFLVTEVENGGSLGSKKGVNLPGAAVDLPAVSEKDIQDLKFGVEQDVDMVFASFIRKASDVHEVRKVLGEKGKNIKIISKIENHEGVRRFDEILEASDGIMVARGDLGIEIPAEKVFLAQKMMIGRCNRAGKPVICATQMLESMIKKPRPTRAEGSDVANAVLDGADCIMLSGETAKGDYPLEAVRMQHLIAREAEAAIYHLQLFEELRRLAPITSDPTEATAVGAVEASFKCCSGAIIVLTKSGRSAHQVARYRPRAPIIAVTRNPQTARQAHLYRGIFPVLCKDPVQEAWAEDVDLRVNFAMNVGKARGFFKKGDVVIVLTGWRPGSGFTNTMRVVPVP

As to `Cn1c2cc([S+](C)[O-])sc2c2cnn(Cc3cccc(N)c3)c(=O)c21` (stereo not drawn) [ML-265], the “caspase 8 activity vs vehicle” value in the data set with caspase 8 [1] is reported as “statistically significantly less”. Also, the “caspase 3/7 activation” value in the data set with caspase 3/7 (setting [6]) is given as “significantly decreased”. In addition, the “caspase 3/7 activity” value in the data set with caspase 3/7 (setting [7]) is recorded as “no significant effect”. Moreover, the “tumor size and occurrence” value in the data set on H1299 cell xenografts (mice bearing H1299 cell xenografts) was “reduce tumor size and occurrence”. The toxicity result in the data set with H1299 cell xenografts (over 7 weeks of continuous drug exposure) is “No toxicity was observed”. The “caspase 8 activation” value in the data set with caspase 8 [2] (setting [6]) is recorded as “significantly decreased”. In addition, the “caspase 8 activity” value in the data set with caspase 8 [2] (setting [7]) was “no significant effect”. The Emax at pyruvate kinase (PK) (rat, intravitreal injection, saturating concentrations, read-out: maximum activation of PK) was at most 170%; on human recombinant PKM2 it was over 250%. The “average in vivo PK activation” value at pyruvate kinase (PK) (setting [8]) was 43%. For the same compound, at pyruvate kinase (PK) (setting [8]), the “median PK activation above DMSO treated retinas” value was 38%. The AC50 – broadly, the concentration giving half of the maximal activity seen – was 59 nM on pyruvate kinase (PK) (intravitreal injection, retinas 4 hours after injection); “comparable to that with recombinant protein” in [3]; 22 nM in [3] (read-out: AC50). Also, the “maximum activation of PK” value at pyruvate kinase (PK) (intravitreal injection, saturating concentrations) is 170%. Also, in data set [3], the “increase in PK activity” value came out at 236%. The half-life was 177 h in data set [4] (23 mM, 50 microliters per eye, highest concentration (1 mM final vitreous), read-out: t1/2 terminal phase (converted)); 7.8 h in data set [4] (between 6 and 48 hours, 100 μM and 1 mM final vitreous concentration, read-out: t1/2 initial phase (converted)). In data set [5], the “normalized gene expression patterns, glucose metabolism genes” value is recorded as “very similar”. Also, the “cell viability above DMSO-treated cells in standard tissue culture conditions” value in the data set on 661W cells (200 nM ML-265) stood at 2%; with 661W cells (2 μM ML-265), 6%. The “less cell death as compared to vehicle” value with 661W cells (200 nM ML-265) is reported as 109%; with 661W cells (2 μM ML-265), 123%. Also, the cell viability result with 661W cells (setting [7]) is recorded as “no significant effect”.
